This is an account of results in paper PMC10653918, “Antibiotic that inhibits trans-translation blocks binding of EF-Tu to tmRNA but not to tRNA” (mBio, 2023).

Values after ≈ are worked out from the molar mass of the structure shown. Where two headings read alike, the source gives them in different places.

In one data set the target is E. coli EF-Tu•GTP (Escherichia coli, UniProt P0CE47). The data set can be described thus: biochemical. It is filed as binding.
For the next data set, the system named is E. coli ∆tolC. As to the kind of experiment: microbe, parasite or virus in culture. Format: cell-based. The conditions noted are these: Escherichia coli.
The subject of another data set is trans-translation. As to the kind of experiment: In vitro trans-translation assay (tagging of DHFR from nonstop template with tmRNA-SmpB). As to conditions: 10 µM compound; percentage of total DHFR in tagged DHFR band; DMSO control 90 ± 7.
A further data set deals with EF-Tu•GTP E378A (Escherichia coli, UniProt P0CE47, E379A). As to the kind of experiment: MST binding assay, EF-Tu E378A mutant.
The target in a further data set is EF-Tu•GTP R318K (Escherichia coli, UniProt P0CE47, R319K). The data set can be described thus: MST binding assay, EF-Tu R318K mutant.
In the next data set the target is EF-Tu•GDP (Escherichia coli, UniProt P0CE47). As to the kind of experiment: MST binding assay, EF-Tu•GDP. The arrangement: species or system E. coli.
A further data set concerns the target EF-Tu•GTP R318N (Escherichia coli, UniProt P0CE47, R319N). The data set can be described thus: MST binding assay, EF-Tu R318N mutant.
Data set [1] concerns B. anthracis vegetative cells, germinants, and spores. The conditions noted are these: in vitro and after ex vivo infection of macrophages; cited from earlier work.
The next data set deals with EF-Tu•GTP H319A (Escherichia coli, UniProt P0CE47, H320A). The data set can be described thus: MST binding assay, EF-Tu H319A mutant.
The subject of the next data set is Francisella tularensis. The conditions noted are these: compared with tetracycline; cited from earlier work.
The next data set relates to translation. The data set can be described thus: In vitro translation assay (DHFR with stop codon, no tmRNA-SmpB). As to conditions: DMSO control 100 ± 1.
For data set [2], the system named is EF-Tu•GTP (Escherichia coli MG1655 (pCA24N tufA, ASKA clone JW3301)). As to the kind of experiment: filter binding. As to conditions: 10 mM Mg2+, 44 mM KH2PO4, 6 mM K2HPO4, 10 mM MgCl2, 50 µg/mL BSA, pH 5.5 (RNA-binding mix; 34 µL mix + 16 µL EF-Tu), 0.1 nM RNA, 15 s at room temperature.
Where [3] appears, read: no KKL-55, 3'-alanylated with AlaRS.

For `O=C(Nc1nnc(-c2ccc(F)cc2)o1)c1ccc(Cl)cc1` [KKL-35, reference compound], the “binding to EF-Tu” value on E. coli EF-Tu•GTP is listed as “No binding”.
Take `CCCn1nnnc1NC(=O)c1cccc(Cl)c1` [KKL-55]: the MIC was 2.3 µM (≈ 0.611 µg/mL) against E. coli ∆tolC and “comparable to that of tetracycline” in the data set on Francisella tularensis. In the data set with trans-translation, the “tagging efficiency ± SD” value stood at 30 ± 2%. The Kd on EF-Tu•GTP E378A was 2.6 ± 0.2 µM; at EF-Tu•GTP E378A (MST, E378A EF-Tu•GTP), “little effect on binding affinity”; at EF-Tu•GTP R318K it was 2.6 µM; on EF-Tu•GDP, 1.6 ± 0.02 µM; on E. coli EF-Tu•GTP, 2 µM; at EF-Tu•GTP R318N, more than 20 µM. The dissociation constant (Kd) was 2.4 ± 0.1 µM on EF-Tu•GTP H319A and “little impact on binding” at EF-Tu•GTP H319A (MST, H319A EF-Tu•GTP). The bactericidal activity result in [1] is “bactericidal”. Besides, the “translation efficiency ± SD” value in the data set with translation (100 µM compound) worked out at 102 ± 2%.
As to `O=C(CCCCC1SCC2NC(=O)NC21)NCCn1nnnc1NC(=O)c1cccc(Cl)c1` (centres unmarked) [KKL-201], in the data set with trans-translation, the “tagging efficiency ± SD” value was found to be 42 ± 2%. Moreover, the “translation efficiency ± SD” value with translation (10 µM compound) stood at 99 ± 6%.
Consider `O=C(N[C@H](CO)[C@H](O)c1ccc([N+](=O)[O-])cc1)C(Cl)Cl` [chlor, chloramphenicol, reference compound], for which the “translation efficiency ± SD” value in the data set on translation (100 µM compound) is given as 5 ± 3%.
In the case of Ala-tRNAAla, in [2] (setting [3]), the Kd amounted to 0.28 µM.
As for Ala-tmRNA, the Kd in data set [2] (25 µM KKL-55 (substantially reduced, no saturation), 3'-alanylated with AlaRS) was more than 10 µM; in data set [2] (setting [3]), 0.75 µM.

As usually defined, the Kd is the concentration at which binding is half-saturated.
